This is an account of results in patent US10509036B2, “Methods of selecting and isolating cancer stem cells” (The Regents of the University of California, priority 2014, dated 2019).

This assay concerns neuroblastoma cells (low NBDG and high NBDG). Briefly: MTS assay (CellTiter 96 AQueous cell proliferation assay), low NBDG versus high NBDG neuroblastoma cells. Format: cell-based, human. On the technique in general: Formazan colour is commonly taken as a measure of viable cells.

The structures appear in SMILES notation.

Consider `COc1cccc2c1C(=O)c1c(O)c3c(c(O)c1C2=O)C[C@@](O)(C(=O)CO)C[C@@H]3O[C@H]1C[C@H](N)[C@H](O)[C@H](C)O1` [doxorubicin], for which the “resistance of low NBDG cells to the chemotherapy drug compared with high NBDG cells (MTS assay)” value is on record as “more resistant”.
With `CC[C@]1(O)C[C@H]2CN(CCc3c([nH]c4ccccc34)[C@@](C(=O)OC)(c3cc4c(cc3OC)N(C=O)[C@H]3[C@@](O)(C(=O)OC)[C@H](OC(C)=O)[C@]5(CC)C=CCN6CC[C@]43[C@@H]65)C2)C1` [vincristine] the entry was “more resistant”.
